We go through 13 molecules from US7012098B2, “Inhibitors of inducible nitric oxide synthase for chemoprevention and treatment of cancers” (Pharmacia Corporation, priority 2001, dated 2006).

Structures can show the parent of a compound that is named as a salt. Where two headings read alike, the source gives them in different places. Bounds are passed on as bounds.

One data set has as its system Human Cartilage. As to the kind of experiment: Human Cartilage Explant Assay (nitrite production). It is filed as cell-based. Conditions: inhibition of nitrite production, IL-1β-induced explants. On the procedure:
Human Cartilage Explant Assay
Bone pieces are rinsed twice with Dulbecco's Phosphate Buffered Saline (GibcoBRL) and once with Dulbecco's Modified Eagles Medium (GibcoBRL) and placed into a petri dish with phenol red free Minimum Essential Medium (MEM) (GibcoBRL). Cartilage was cut into small explants of approximately 15-45 mg in weight and one or two explants per well are placed into either 96 or 48 well culture plates with 200-500 μL of culture media per well. The culture media was either a custom modification of Minimum Essential Medium(Eagle) with Earle's salts (GibcoBRL) prepared without L-Arginine, without L-Glutamine and without phenol red or a custom modification of serumless Neuman and Tytell (GibcoBRL) medium prepared without L-arginine, without insulin, without ascorbic acid, without L-glutamine and without phenol red. Both are supplemented before use with 100 μM L-Arginine (Sigma), 2 mM L-glutamine, 1X HL-1 supplement (BioWihittaker), […] ascorbic acid (Sigma) and 150 pg/ml recombinant human IL-1β (RD Systems) to induce nitric oxide synthase. Compounds are then added in 10 μL aliquots and the explants incubated at 37° C. with 5% CO2 for 18-24 hours. The day old supernatant is then discarded and replaced with fresh culture media containing recombinant human IL-1? and compound and incubated for another 20-24 hours. […] All samples are done in quadruplicate. Unstimulated controls are cultured in media in the absence of recombinant human IL-1β. IC50 values (Table I) are determined from plotting the percent inhibition of nitrite production at six different concentrations of inhibitor.

For data set [1], the system named is LPS-induced increase in plasma nitrite/nitrate levels. As to the kind of experiment: In Vivo Assay, endotoxin-treated rats, plasma nitrite/nitrate. To be noted: administered orally. On the procedure: Plasma nitrite/nitrate levels can be determined 5 hours post-treatment.
Data set [2] has as its system azoxymethane-induced colonic aberrant crypt foci. To be noted: cited from earlier work; for formation of colonic aberrant crypt foci: male F344 rats.
The nature of data set [3]: Body weights and toxicity on experimental diets. It is filed as in vivo, male F344 rats. From the text:
(§1) Azoxymethane (AOM) (CAS:25843-45-2) was purchased from Ash Stevens (Detroit, Mich.). iNOS and COX-2 selective inhibitors were provided by Pharmacia, (St. Louis, […].). Sulindac, a non-selective inhibitor of COX-isoforms and a known inhibitor of colon carcinogenesis, was supplied by the Chemoprevention Branch of the National Cancer Institute (Bethesda, Md.). Weanling male F344 rats were purchased from Charles River Breeding Laboratories (Kingston, N.Y.). All ingredients of the semipurified diet were obtained from Dyets Inc., (Bethlehem, Pa.) and were stored at 4° C. until the experimental diets were prepared. The rats were held in quarantine for 1 week and had access to modified AIN-76A semipurified control diet (Reddy et al., Cancer Res. 50: 2562-2568, 1990, which is herein incorporated by reference.). They were randomly distributed into various dietary groups and were transferred to an animal holding room where they were housed, three rats to a plastic cage, under controlled conditions of a 12-h light/12-h dark cycle, 50% relative humidity and 21° C. room temperature. Experimental diets were prepared by mixing chemopreventive agents with modified AIN-76A control diet.

The test system of another data set is AOM-induced colonic ACF. Kind of data set: Chemopreventive effects in rats with azoxymethane-induced aberrant crypt foci. In kind it is in vivo, male F344 rats. To be noted: for Foci containing 1 Crypt / Foci containing 2 Crypt / Foci containing 3 Crypt / Foci containing ≧4 Crypts / Total ACF incidence: AOM-treated male F344 rats, Mean ± SEM; for inhibition at 320 ppm: feed or water, positive control.
Excerpt: In Vivo Assay of Chemopreventive Effects of Therapeutic Compounds in Rats with Azoxymethane-induced Aberrant Crypt Foci
as §1
To quantify aberrant crypt foci, after a minimum of 24 h in buffered formalin, the colons were cut into 2-cm segments starting at the anus; for the next 5-10 min they were placed in a Petri dish containing 0.2% methylene blue in Krebs Ringer solution. They were then placed, mucosal side up, on a microscope slide and observed through a light microscope. Aberrant crypt foci were recorded according to standard procedures that are being used routinely in our laboratory (Rao et al., Carcinogenesis 21: 617-21, 2000; Rao et al., Cancer Res. 53:4182-88, 1993, which are herein incorporated by reference.). […] The parameters used to assess the aberrant crypts were their occurrence and multiplicity. Crypt multiplicity was determined as the number of crypts in each focus and categorized as containing up to 3, or 4 or more aberrant crypts/focus.

The test system of the next data set is NOS. Kind of data set: Colonic mucosal NOS activity after dietary treatment. In kind it is in vivo, male F344 rats. Conditions: 500 ppm in diet; AOM-treated rats, colonic mucosa; Mean ± SEM. On the procedure: In Vivo Assay of Modulation of Colonic Mucosal Activities of NOS and COX isoforms by iNOS and COX-2 Inhibitors
NOS and iNOS activities were determined in colonic samples as prepared and described above. Conversion of L-arginine to L-citrulline was measured by a modification of an earlier described method (Rao et al, Carcinogenesis 21, supra; Ambs et al., Cancer Res. 58:334-41, 1998, which is herein incorporated by reference). The assay was carried out by adding 100 μg sample protein to 150 μl of assay buffer [50 mM HEPES, 1 mM DTT, 1 mM MgCl2, 5 mg/L pepstatin A, 0.1 mM PMSF, and 3 mg/L aprotinin, pH 7.4] containing 70 μM arginine, 250,000 dpm L-[^3H]-arginine, 2 mM NADPH, 5μM tetrahydro biopterin, 5 μM flavin adenine dinucleotide, and 0.5 mM CaCi2 to measure total NOS activity, or 1 mM EGTA (without calcium) to determine Ca+^2-independent iNOS activity. After 30 min at 37° C., the reaction was stopped with 100 μl of 1M trichloroacetic acid. Then the samples were adjusted to pH 4.6 by adding 500 μl of 20 mM HEPES and loaded on to Dowex AG 50W-X8 resin columns. L-[^3H]-citrulline was eluted and separated on TLC. Radioactivity was counted by a BioScan Radiomatic detector. Results are expressed as pmol L-[^3H]-citrulline released/mg protein/min.

Setting [4] is: Rattus norvegicus, po, read-out: ED50.

For orientation: IC50 means the point on the concentration scale where inhibition reaches its midpoint. A higher IC50 goes with a need for much substance. Take `N=C1CCCC[C@H](CCCC[C@H](N)C(=O)O)N1` [Example X, (αS,2S)-α-aminohexahydro-7-imino-1H-azepine-2-hexanoic acid, trihydrate hydrochloride]: in the data set with Human Cartilage, the half-maximal inhibitory concentration (IC50) was below 10 µM.
As usually defined, the ED50 is the dose at which the effect has come halfway, by size or by number of responders. On to `CC(=N)NC/C(F)=C\CC[C@H](N)C(=O)O` [Example A, (2S,5E)-2-amino-6-fluoro-7-[(1-iminoethyl)amino]-5-heptenoic acid, dihydrochloride], for which, in data set [1] (dihydrochloride), the ED50 was below 0.1 mg/kg.
In the case of `N=C(N)SCCc1ccc(CCSC(=N)N)cc1` [PBIT], the “azoxymethane-induced colonic aberrant crypt foci development and iNOS activity” value in data set [2] (laboratory rodents) is reported as “prevented”.
On to `CC(=N)NC/C=C\CC[C@](C)(N)C(=O)O.Cl.Cl` [Example LL, (2S,5Z)-2-amino-2-methyl-7-[(1-iminoethyl)amino]-5-heptenoic acid, dihydrochloride], for which, in the data set on Human Cartilage (Homo sapiens), the half-inhibitory concentration (IC50) was 0.8 µM. In addition, the ED50 in data set [1] (setting [4]) stood at 0.3 mg/kg.
For `CC1=C(CC(=O)O)c2cc(F)ccc2/C1=C\c1ccc([S+](C)[O-])cc1` (stereo not shown) [Sulindac], the body weights entry in data set [3] (rats treated with vehicle or AOM, control vs experimental diets, throughout the study period) is given as “comparable”. Further, the “toxicity or gross changes in the liver, kidney, intestine and lungs” value in data set [3] (vehicle-treated rats fed the experimental diets) was “did not produce any toxicity or any gross changes”. Further, in the data set on AOM-induced colonic ACF (320 ppm in diet), the “Foci containing 1 Crypt” value came out at 23.3 ± 1.8, the “Foci containing 2 Crypt” value amounted to 28.0 ± 1.5, the “Foci containing 3 Crypt” value was determined as 17.3 ± 1.7 and the “Foci containing ≧4 Crypts” value is 16.5 ± 0.9. Besides, the “Total ACF incidence” value with AOM-induced colonic ACF (320 ppm in diet) came out at 84.9 ± 4.1. For the same molecule, in the data set with AOM-induced colonic ACF (Rattus norvegicus, 320 ppm in diet, read-out: inhibition of multicrypt clusters containing 4 or more aberrant crypts/focus), the inhibition at 320 ppm amounted to 50%. Also, the inhibition at 320 ppm in the data set with AOM-induced colonic ACF (Rattus norvegicus, 320 ppm in diet, read-out: inhibition of total ACF/colon) was 40%.
Take `N=C1CCCC[C@H](CCCC[C@H](N)C(=O)O)N1` [Example Z, (αS,2S)-α-aminohexahydro-7-imino-1H-azepine-2-hexanoic acid, trihydrate hydrochloride]: the IC50 with Human Cartilage (Homo sapiens) is below 10 µM.
`Cl.N=C1CCCC[C@H](CCCC[C@@H](N)C(=O)O)N1.O.O.O` [Example V, (αR,2S)-α-aminohexahydro-7-imino-1H-azepine-2-hexanoic acid, trihydrate hydrochloride] yielded a half-maximal inhibitory concentration (IC50) with Human Cartilage (Homo sapiens) below 10 µM. Further, the ED50 in data set [1] (setting [4]) is below 3 mg/kg.
For `CC(=N)NC/C(F)=C\CC[C@](C)(N)C(=O)O.Cl.Cl` [Example HH, (2S,5E)-2-amino-2-methyl-6-fluoro-7-[(1-iminoethyl)amino]-5-heptenoic acid, dihydrochloride] the same measures were 0.4 µM and 0.4 mg/kg.
In the data set on Human Cartilage (Homo sapiens), `Cl.N=C1CCCC[C@@H](CCCC[C@H](N)C(=O)O)N1.O.O.O` [Example W, (αS,2R)-α-aminohexahydro-7-imino-1H-azepine-2-hexanoic acid, trihydrate hydrochloride] returned an IC50 above 30 µM. For the same molecule, the ED50 in data set [1] (setting [4]) was above 10 mg/kg.
`COc1ccc2cc(CCC(C)=O)ccc2c1` [nabumetone]: the “formation of colonic aberrant crypt foci” value in data set [2] is reported as “inhibit”.
Take `CS(=O)(=O)Nc1ccc([N+](=O)[O-])cc1Oc1ccccc1` [nemisulide]: in data set [2], the “formation of colonic aberrant crypt foci” value was “inhibit”.
`COC[C@](N)(CSCCNC(C)=N)C(=O)O` [Example J, 2-[[[2-[(1-Iminoethyl)amino]ethyl]thio]methyl]-O-methyl-D-serine, dihydrochloride] came in with an IC50 with Human Cartilage of 8.2 µM.
On to `Cc1ccc(-c2cc(C(F)(F)F)nn2-c2ccc(S(N)(=O)=O)cc2)cc1` [Celecoxib, celecoxib], for which, in the data set on AOM-induced colonic ACF (500 ppm in diet), the “Foci containing 1 Crypt” value was 26.8 ± 2.1, the “Foci containing 2 Crypt” value is 27.3 ± 2.0, the “Foci containing 3 Crypt” value is listed as 23.7 ± 2.3 and the “Foci containing ≧4 Crypts” value was 23.3 ± 2.7. Also, the “Total ACF incidence” value in the data set with AOM-induced colonic ACF (500 ppm in diet) came to 102 ± 7.5. Moreover, in the data set on AOM-induced colonic ACF (Rattus norvegicus, 500 ppm, read-out: inhibition of total ACF), the inhibition at 500 ppm lay within 5 to 20%. In addition, the “NOS Activity, NOS” value in the data set with NOS is 11.3 ± 2.1 pmoles [^3H]-citrulline/mg pro.
